Data from patent US20230174538A1, “Tricyclic heterocycles” (Merck Patent GmbH, priority 2020, published 2023).

Assays:
[1] = tested on: YAP-TEAD interaction; test: SK-HEP-1 reporter assay (8xTEAD responsive elements driving NanoLuc luciferase); format: cell-based; conditions: Homo sapiens, SK-HEP1, SK-HEP-1 reporter assay
Summary of the method: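 Luminescence after NanoGlo addition gave reporter activity, and IC50 values came from duplicate 10-point curves (top final concentration 30 μM, 0.3% DMSO). The cells were SK-HEP-1 with a stably integrated 8×TEAD-driven NanoLuc gene, exposed to compound for 24 h at 37 °C.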

[2] = tested on: NCI-H226 cells; test: Viability assay in NCI-H226 (Yap-dependent) cells, CyQUANT; format: cell-based; conditions: Homo sapiens
Experimental: (§1) Viability Assay in NCI-H226 (Yap-Dependent) and SW620 Yap KO (Yap Independent) Cells
(§2) The ability of YAP-TEAD inhibitors to inhibit tumor cell growth was evaluated using two different cell lines: NCI-H226, which is a YAP dependent cell line, and SW620 cells, where YAP and TAZ were knocked out using CRISPR to generate a YAP independent cell line.
(§3) For the assay, cells were treated in duplicates with the test compounds in a 10-point dose, 1:3 dilution steps, with the top concentration starting at 30 μM (final concentration in assay). After a 96 hour incubation at 37° C., 95% rH, and 5% CO2, a cell-permeant DNA-binding dye that stains only healthy cells (CyQUANT®, Promega) was added to the cells, allowing the quantification of cell viability.
(§4) Cell Media: The NCI-H226 cells were cultured in the following media: RPMI 1640, +10% FBS, +1× GlutaMAX, +10 mM HEPES, +0.5% Pen/Strep. The SW620-KO cells were cultured in the following media: DMEM/F-12, +10% FBS, +1× GlutaMAX, +10 mM HEPES, +0.5% Pen/Strep.
(§5) Reagents: The reagents used are listed below:
(§6) Cell culture: The cells were examined using an inverted microscope to check for health, cell density, etc. To dissociate adherent cells, the monolayer of cells was washed once with pre-warmed PBS. After removing the PBS, 3 ml pre-warmed Accutase was added to a F75 flask, dispersed evenly and the flask was allowed to sit in incubator for ˜4-5 minutes.
(§7) When a single cell suspension was obtained, 7 ml of prewarmed growth media was added and resuspended with the cells. The cell suspension was transferred to a sterile 15 ml conical centrifuge tube, and spun for 5 min at 300×g, RT. The supernatant was discarded and the pellet was resuspended in 10 ml of pre-warmed growth media.
(§8) The total cell count was determined, and 20 μl of the desired cell number was added to each well of a 384 well plate using a Multidrop Combi. The plates were then incubated for 24 hours at 37° C., 95% rH, and 5% CO2.
(§9) Compound treatment: 24 hours after seeding, the cells were treated with compounds.
(§10) A 1:333 dilution of compounds, diluted in DMSO, was made to get a final concentration of 0.3% DMSO per well. To transfer the compounds to the assay plate, 120 nl was shot from Labcyte low dead volume plates to the cell plates containing 20 μl media/well with the ECHO 555 liquid handling system.
(§11) After treatment, the cells were fed with 20 μl fresh pre-warmed assay media using a Multidrop combi.
(§12) The assay plates were then incubated for 96 h at 37° C., 95% rH, and 5% CO2.
(§13) 96 h after treatment 30 μl of CyQuant® reagent was added to the assay plates using a Multidrop combi in the dark. The plates were then incubated for 1 hour at 37° C., 95% rH and 5% CO2. Thereafter, the assay plates were removed from the incubator and allowed to equilibrate to RT for 30 min in the dark without lid. Finally, they were measured using an EnVision microplate reader with a FITC bottom read program.

[3] = tested on: SW620 Yap KO cells; test: Viability assay in SW620 Yap KO (Yap independent) cells, CyQUANT; format: cell-based; conditions: Homo sapiens, SW-620
Experimental: as §1, §2, §3, §4, §5, §6, §7, §8, §9, §10, §11, §12, §13

SMILES | IC50 [1] [nM] | IC50 [2] [nM] | IC50 [3] [nM] | melting point [°C]
Cc1ccc(-n2c3ccc(C(=O)O)cc3c3cn(C)nc32)cc1 [Example 9, 2-Methyl-8-(4-methylphenyl)-2H,8H-pyrazolo[3,4-b]indole-5-carboxylic acid] | – | 1 to 100 | 10000 to 30000 | –
CNC(=O)c1ccc2c(c1)c1nn(C)cc1n2-c1ccc(C(F)(F)F)cc1 [Example 17, N,2-dimethyl-4-[4-(trifluoromethyl)phenyl]pyrazolo [4,3-b]indole-7-carboxamide] | 10 to 100 | 100 to 1000 | > 30000 | –
Cn1cc2c(n1)c1cc(C#N)ccc1n2-c1ccc(C(F)(F)F)cc1 [Example 19, 2-methyl-4-[4-(trifluoromethyl)phenyl]pyrazolo [4,3-b]indole-7-carbonitrile] | > 10000 | > 10000 | > 30000 | 208 to 210
Cn1cc2c3cc(C(=O)O)ccc3n(-c3ccc(C4CCCC4)cc3)c2n1 [Example 22, 8-(4-cyclopentylphenyl)-2-methyl-2H,8H-pyrazolo [3,4-b]indole-5-carboxylic acid] | 10 to 100 | 100 to 1000 | > 30000 | –
Cn1cc2c(n1)c1cc(F)ccc1n2-c1ccc(C(F)(F)F)cc1 [Example 26, 7-fluoro-2-methyl-4-[4-(trifluoromethyl)phenyl]pyrazolo[4,3-b]indole] | 10 to 100 | > 10000 | 10000 to 30000 | –
Cn1cc2c3cc(C(=O)NCc4ccncc4)ccc3n(-c3ccc(C(F)(F)F)cc3)c2n1 [Example 28, 2-methyl-N—[(pyridin-4-yl)methyl]-8-[4-(trifluoromethyl)phenyl]-2H, 8H-pyrazolo[3,4-b]indole-5-carboxamide] | > 10000 | – | – | 181 to 185
CSc1ccc2c(c1)c1cn(C)nc1n2-c1ccc(C)cc1 [Example 31, 2-methyl-8-(4-methylphenyl)-5-(methylsulfanyl)-2H,8H-pyrazolo[3,4-b]indole] | 10 to 100 | > 10000 | > 30000 | –
Cn1cc2c(n1)c1cc([S+](C)[O-])ccc1n2-c1ccc(C(F)(F)F)cc1 (stereo not shown) [Example 32, 7-methanesulfinyl-2-methyl-4-[4-(trifluoromethyl)phenyl]-2H,4H-pyrazolo[4,3-b]indole] | 100 to 10000 | > 10000 | – | –
Cn1cc2c(n1)c1cc(S(N)(=O)=O)ccc1n2-c1ccc(C(F)(F)F)cc1 [Example 34, 2-methyl-4-[4-(trifluoromethyl)phenyl]-2H,4H-pyrazolo[4,3-b]indole-7-sulfonamide] | 10 to 100 | > 10000 | > 30000 | –
Cn1cc2c3cc(C(=O)NCc4n[nH]cc4C4CC4)ccc3n(-c3ccc(C(F)(F)F)cc3)c2n1 [Example B22, N-[(4-cyclopropyl-1H-pyrazol-3-yl)methyl]-2-methyl-8-[4-(trifluoromethyl)phenyl]-2H,8H-pyrazolo[3,4-b]indole-5-carboxamide] | 10 to 100 | 1 to 100 | > 30000 | –
CCn1cc(C(O)CNC(=O)c2ccc3c(c2)c2cn(C)nc2n3-c2ccc(C(F)(F)F)cc2)cn1 (stereo not shown) [Example B36, N-[2-(1-ethyl-1H-pyrazol-4-yl)-2-hydroxyethyl]-2-methyl-8-[4-(trifluoromethyl)phenyl]-2H,8H-pyrazolo[3,4-b]indole-5-carboxamide] | 10 to 100 | 1 to 100 | > 30000 | –
COCC(NC(=O)c1ccc2c(c1)c1cn(C)nc1n2-c1ccc(C(F)(F)F)cc1)c1cnn(C)c1 (stereo not shown) [Example B68, N-[2-methoxy-1-(1-methyl-1H-pyrazol-4-yl)ethyl]-2-methyl-8-[4-(trifluoromethyl)phenyl]-2H,8H-pyrazolo[3,4-b]indole-5-carboxamide] | 10 to 100 | 100 to 1000 | > 30000 | –

More lines, now with the values ahead:

IC50 [1] [nM] | IC50 [2] [nM] | IC50 [3] [nM] | melting point [°C] | SMILES
10 to 100 | 100 to 1000 | – | – | CCCn1ncc(CNC(=O)c2ccc3c(c2)c2cn(C)nc2n3-c2ccc(C(F)(F)F)cc2)c1C [B123^]
10 to 100 | 1 to 100 | > 30000 | – | COc1nc(C)cc(CNC(=O)c2ccc3c(c2)c2cn(C)nc2n3-c2ccc(C(F)(F)F)cc2)n1 [B126^]
10 to 100 | 1 to 100 | > 30000 | – | Cn1cc2c3cc(C(=O)O)ccc3n(Cc3ccc(C(F)(F)F)cc3)c2n1 [Example 5, 2-Methyl-8-{[4-(trifluoromethyl)phenyl]methyl}-2H,8H-pyrazolo[3,4-b]indole-5-carboxylic acid]
10 to 100 | 100 to 1000 | > 30000 | – | Cn1cc2c3cc(C(=O)O)ccc3n(-c3cccc(C(F)(F)F)c3)c2n1 [Example 6, 2-Methyl-8-[3-(trifluoromethyl)phenyl]-2H,8H-pyrazolo[3,4-b]indole-5-carboxylic acid]
10 to 100 | 100 to 1000 | > 30000 | – | Cn1cc2c3cc(C(=O)O)ccc3n(-c3ccc(F)cc3)c2n1 [Example 10, 8-(4-fluorophenyl)-2-methyl-2H,8H-pyrazolo[3,4-b]indole-5-carboxylic acid]
10 to 100 | 100 to 1000 | > 30000 | – | Cn1cc2c3cc(C(=O)O)ccc3n(Cc3ccccc3)c2n1 [Example 12, 8-(Benzyl)-2-methyl-2H,8H-pyrazolo[3,4-b]indole-5-carboxylic acid]
10 to 100 | 100 to 1000 | > 30000 | – | COc1ccc(-n2c3ccc(C(=O)O)cc3c3cn(C)nc32)cc1 [Example 14, 8-(4-methoxyphenyl)-2-methyl-2H,8H-pyrazolo[3,4-b]indole-5-carboxylic acid]
10 to 100 | 100 to 1000 | > 30000 | 179 to 181 | CCOc1ccc(-n2c3ccc(C(=O)O)cc3c3cn(C)nc32)cc1 [Example 15, 8-(4-Ethoxyphenyl)-2-methyl-2H,8H-pyrazolo[3,4-b]indole-5-carboxylic acid]
10 to 100 | 1 to 100 | 1000 to 10000 | 111 to 112 | COC(=O)c1ccc2c(c1)c1nn(C)cc1n2-c1ccc(C(F)(F)F)cc1 [Example 16, Methyl 2-methyl-4-[4-(trifluoromethyl)phenyl]pyrazolo[4,3-b]indole-7-carboxylate]
1 to 10 | 100 to 1000 | > 30000 | – | Cn1cc2c3cc(C(=O)O)ccc3n(-c3ccc(OC(F)(F)F)cc3)c2n1 [Example 18, 2-methyl-8-[4-(trifluoromethoxy)phenyl]-2H,8H-pyrazolo[3,4-b]indole-5-carboxylic acid]
1 to 10 | 100 to 1000 | 10000 to 30000 | 223 to 224 | C=CC(=O)Nc1ccc2c(c1)c1cn(C)nc1n2-c1ccc(C(F)(F)F)cc1 [Example 20, N-[2-methyl-8-[4-(trifluoromethyl)phenyl]pyrazolo[3,4-b]indol-5-yl]prop-2-enamide]
1 to 10 | 1000 to 10000 | 10000 to 30000 | 185 to 187 | C=CC(=O)NCc1ccc2c(c1)c1cn(C)nc1n2-c1ccc(C(F)(F)F)cc1 [Example 21, N—([2-methyl-8-[4-(trifluoromethyl)phenyl]pyrazolo [3,4-b]indol-5-yl]methyl)prop-2-enamide]
1 to 10 | 100 to 1000 | > 30000 | – | Cn1cc2c(n1)c1cc(S(C)(=N)=O)ccc1n2-c1ccc(C(F)(F)F)cc1 (stereo not shown) [Example 35, Imino(methyl){2-methyl-4-[4-(trifluoromethyl)phenyl]-2H,4H-pyrazolo[4,3-b]indol-7-yl}-lambda6-sulfanone]
1 to 10 | 1 to 100 | > 30000 | – | CN(C)S(=N)(=O)c1ccc2c(c1)c1nn(C)cc1n2-c1ccc(C(F)(F)F)cc1 (stereo not shown) [Example 36, N,N,2-Trimethyl-4-[4-(trifluoromethyl)phenyl]-2H,4H-pyrazolo[4,3-b]indole-7-sulfonoimidamide]
